From ChEMBL document CHEMBL4334474, “Friomaramide, a Highly Modified Linear Hexapeptide from an Antarctic Sponge, Inhibits Plasmodium falciparum Liver-Stage Development” (J Nat Prod, 2019)
Active and inactive are the calls of the source. No cut-off for these calls is given here. Non-standard residues stand in square brackets, D forms with d. Residues, ends and D or L forms follow the SMILES beside them. *: point of attachment. NMeI = CC[C@H](C)[C@H](NC)C(=O)O; dNMeF = CN[C@H](Cc1ccccc1)C(=O)O; X1 = C(=C/c1c[nH]c2ccccc12)/N*; NMeV = CN[C@H](C(=O)O)C(C)C; NMeA = CN[C@@H](C)C(=O)O

Columns and labels:
[1] = system: Hepatocyte; experiment: Cytotoxicity against human primary hepatocytes at 19.3 uM; type: cell-based
[2] = system: Plasmodium falciparum; experiment: Antimalarial activity against Plasmodium falciparum liver stage form infected in human primary hepatocytes assessed as reduction in viability at 19.3 uM incubated for 3 days followed by compound wash and measured on day 6 relative to control; type: functional
[3] = system: Hepatocyte; experiment: Cytotoxicity against human primary hepatocytes at 17.6 uM; type: cell-based
[4] = system: Plasmodium falciparum; experiment: Antimalarial activity against Plasmodium falciparum liver stage form infected in human primary hepatocytes assessed as reduction in viability at 17.6 uM incubated for 3 days followed by compound wash and measured on day 6; type: functional, organism-based
[5] = system: Hepatocyte; experiment: Cytotoxicity against human primary hepatocytes at 6.1 uM; type: cell-based
[6] = system: Plasmodium falciparum; experiment: Antimalarial activity against Plasmodium falciparum liver stage form infected in human primary hepatocytes assessed as reduction in viability at 6.1 uM incubated for 3 days followed by compound wash and measured on day 6 relative to control; type: functional

COc1cc(NC(C)CCCN)c2ncccc2c1 (stereo unspecified) [PRIMAQUINE]
Activity [1]: Non-Toxic | inhibition at 19.3 µM [2]: > 90%

C[C@H]1[C@@H](O)O[C@@H]2O[C@@]3(C)CC[C@H]4[C@H](C)CC[C@@H]1[C@@]24OO3 [ARTENIMOL]
Activity [3]: Non-Toxic | inhibition [4]: inactive

CC[C@H](C)[C@@H](C(=O)N/C=C\c1c[nH]c2ccccc12)N(C)C(=O)[C@H]([C@@H](C)CC)N(C)C(=O)[C@H](C)N(C)C(=O)[C@H](C(C)C)N(C)C(=O)[C@@H](Cc1ccccc1)N(C)C(C)=O (Ac-[dNMeF][NMeV][NMeA][NMeI][NMeI]-X1)
Activity [5]: Non-Toxic | inhibition at 6.1 µM [6]: 90 to 92%
